Reference: patent US20170298052A1, “SUBSTITUTED OXOPYRIDINE DERIVATIVES” (BAYER PHARMA AKTIENGESELLSCHAFT, priority 2014, published 2017)

What was measured:
human plasma kallikrein = human plasma kallikrein (Homo sapiens, UniProt P03952); assay: Determination of the plasma kallikrein activity (fluorogenic peptide substrate, AMC cleavage); format: biochemical; details: plasma kallikrein from Kordia 0.6 nM; substrate H-Pro-Phe-Arg-AMC; 30 min at 22° C.; read-out: IC50 [nM] (Table B, plasma kallikrein inhibition)
Procedure: (§1) To determine the plasma kallikrein inhibition of the substances according to the invention, a biochemical test system is used which utilizes the reaction of a peptidic plasma kallikrein substrate to determine the enzymatic activity of human plasma kallikrein. Here, plasma kallikrein cleaves from the peptic plasma kallikrein substrate the C-terminal aminomethylcoumarin (AMC), the fluorescence of which is measured. The determinations are carried out in microtitre plates.
Test substances are dissolved in dimethyl sulphoxide and serially diluted in dimethyl sulphoxide (3000 μM to 0.0078 μM; resulting final concentrations in the test: 50 μM to 0.00013 μM). 1 μl of the diluted substance solutions is placed into each of the wells of white microtitre plates from Greiner (384 wells). 20 μl of assay buffer (50 mM Tris/HCl pH 7.4; 100 mM sodium chloride solution; 5 mM of calcium chloride solution; 0.1% of bovine serum albumin) and 20 μl of plasma kallikrein from Kordia (0.6 nM in assay buffer) are then added successively. After 15 min of incubation, the enzyme reaction is started by addition of 20 μl of the substrate H-Pro-Phe-Arg-AMC dissolved in assay buffer (10 μM in assay buffer) from Bachem, the mixture is incubated at room temperature (22° C.) for 30 min and fluorescence is then measured (excitation: 360 nm, emission: 460 nm). The measured emissions of the test batches with test substance are compared to those of control batches without test substance (only dimethyl sulphoxide instead of test substance in dimethyl sulphoxide), and IC50 values are calculated from the concentration/activity relationships.

human factor XIa = target: T1, human factor XIa (Homo sapiens, UniProt P03951); assay: Measurement of FXIa inhibition (fluorogenic peptide substrate, AMC cleavage); format: biochemical; details: factor XIa from Kordia 0.45 nM; substrate Boc-Glu(OBzl)-Ala-Arg-AMC; 30 min at 22° C.
T1 construct: purchased Kordia
Procedure: as §1, with “The factor XIa” for “To determine the plasma kallikrein”, “invention is determined using” for “invention,”, “system” for “system is used”, “factor XIa” for “plasma kallikrein”, “factor XIa.” for “plasma kallikrein.”
1 μl of the diluted substance solutions is placed into each of the wells of white microtitre plates from Greiner (384 wells). […] After 15 min of incubation, the enzyme reaction is started by addition of 20 μl of the factor XIa substrate Boc-Glu(OBzl)-Ala-Arg-AMC dissolved in assay buffer (10 μM in assay buffer) from Bachem, the mixture is incubated at room temperature (22° C.) for 30 min and fluorescence is then measured (excitation: 360 nm, emission: 460 nm). The measured emissions of the test batches with test substance are compared to those of control batches without test substance (only dimethyl sulphoxide instead of test substance in dimethyl sulphoxide), and IC50 values are calculated from the concentration/activity relationships.

human plasma kallikrein, sequence (P03952 391-638 limits assumed): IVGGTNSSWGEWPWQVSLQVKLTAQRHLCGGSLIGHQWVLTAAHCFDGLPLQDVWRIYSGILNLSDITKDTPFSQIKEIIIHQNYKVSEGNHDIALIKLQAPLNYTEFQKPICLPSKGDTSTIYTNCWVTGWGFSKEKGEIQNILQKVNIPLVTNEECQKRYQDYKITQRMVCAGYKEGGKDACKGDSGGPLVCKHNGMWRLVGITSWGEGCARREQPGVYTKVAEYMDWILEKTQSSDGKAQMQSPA
human plasma kallikrein, sequence (P03952 20-390 partner limits assumed): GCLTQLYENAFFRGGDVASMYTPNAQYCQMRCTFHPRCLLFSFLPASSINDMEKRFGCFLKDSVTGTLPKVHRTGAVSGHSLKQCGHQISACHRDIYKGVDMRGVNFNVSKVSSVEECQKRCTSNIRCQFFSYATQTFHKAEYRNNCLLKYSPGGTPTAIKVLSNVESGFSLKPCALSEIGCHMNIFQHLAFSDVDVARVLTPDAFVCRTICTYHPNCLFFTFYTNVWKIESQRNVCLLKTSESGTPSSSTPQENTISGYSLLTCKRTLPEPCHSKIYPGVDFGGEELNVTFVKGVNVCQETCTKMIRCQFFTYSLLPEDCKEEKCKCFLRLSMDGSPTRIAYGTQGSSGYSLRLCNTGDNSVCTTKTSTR
T1 sequence (P03951 388-625 limits assumed): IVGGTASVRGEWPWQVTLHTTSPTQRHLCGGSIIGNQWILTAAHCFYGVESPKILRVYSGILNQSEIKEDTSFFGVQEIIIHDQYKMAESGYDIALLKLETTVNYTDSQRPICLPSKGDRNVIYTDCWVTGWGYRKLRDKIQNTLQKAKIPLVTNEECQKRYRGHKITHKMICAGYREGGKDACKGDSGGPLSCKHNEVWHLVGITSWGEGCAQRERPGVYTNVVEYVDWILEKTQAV
T1 sequence (P03951 19-387 partner limits assumed): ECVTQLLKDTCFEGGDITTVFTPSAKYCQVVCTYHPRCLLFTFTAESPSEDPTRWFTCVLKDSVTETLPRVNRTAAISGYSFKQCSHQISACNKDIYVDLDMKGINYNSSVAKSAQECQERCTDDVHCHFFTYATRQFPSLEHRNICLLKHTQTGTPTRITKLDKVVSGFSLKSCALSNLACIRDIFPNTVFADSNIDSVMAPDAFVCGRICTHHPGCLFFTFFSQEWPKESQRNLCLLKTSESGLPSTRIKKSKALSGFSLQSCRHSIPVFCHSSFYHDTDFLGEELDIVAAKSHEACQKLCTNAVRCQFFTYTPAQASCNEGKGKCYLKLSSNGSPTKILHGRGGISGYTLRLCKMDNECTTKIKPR

Row | Compound | IC50 (human plasma kallikrein) [nM] | IC50 (human factor XIa) [nM]
1 | COc1cn(C(CCOC(C)C)C(=O)Nc2ccc(C(N)=O)c(F)c2)c(=O)cc1-c1cc(Cl)ccc1C#N (racemic) [Example 19, 4-({2-[4-(5-Chloro-2-cyanophenyl)-5-methoxy-2-oxopyridin-1(2H)-yl]-4-isopropoxybutanoyl}amino)-2-fluorobenzamide] | 7.4 | 12.5
2 | COc1cn(C(Cc2cc(C)no2)C(=O)Nc2ccc(C(N)=O)c(F)c2)c(=O)cc1-c1cc(Cl)ccc1F (stereo not shown) [Example 16] | 350 | 200
3 | COCCC(C(=O)Nc1ccc(C(N)=O)c(F)c1)n1cc(OC)c(-c2cc(C)ccc2C#N)cc1=O (racemic) [Example 49, 4-({2-[4-(2-Cyano-5-methylphenyl)-5-methoxy-2-oxopyridin-1(2H)-yl]-4-methoxybutanoyl}amino)-2-fluorobenzamide] | 27 | 28
4 | CCC(C(=O)Nc1ccc(C(N)=O)c(F)c1)n1cc(OC)c(-c2cc(Cl)ccc2C#N)cc1=O (stereo not shown) [Example 7] | 36 | 25
5 | N#Cc1ccc(Cl)cc1-c1cc(=O)n(C(Cc2ccccn2)C(=O)Nc2ccc(C(N)=O)c(F)c2)cc1OC(F)F (stereo not shown) [Example 11] | 490 | 160
6 | COc1cn(C(Cc2ccccn2)C(=O)Nc2ccc(C(N)=O)c(F)c2)c(=O)cc1-c1cc(Cl)ccc1C(F)F (racemic) [Example 34, 4-{[2-{4-[5-Chloro-2-(difluoromethyl)phenyl]-5-methoxy-2-oxopyridin-1(2H)-yl}-3-(pyridin-2-yl)propanoyl}amino]-2-fluorobenzamide] | 53 | 42
7 | N#Cc1ccc(Cl)cc1-c1cc(=O)n(C(Cc2cnco2)C(=O)Nc2ccc(C(N)=O)c(F)c2)cc1OC(F)F (stereo not shown) [Example 1] | 490 | 240
8 | COc1cn(C(Cc2cnco2)C(=O)Nc2cc(F)c(C(N)=O)c(F)c2)c(=O)cc1-c1cc(Cl)ccc1C#N (racemic) [Example 40, 4-({2-[4-(5-Chloro-2-cyanophenyl)-5-methoxy-2-oxopyridin-1(2H)-yl]-3-(1,3-oxazol-5-yl)propanoyl}amino)-2,6-difluorobenzamide] | 27 | 34
9 | COc1cn(C(Cc2ccccn2)C(=O)Nc2ccc(C(N)=O)c(F)c2)c(=O)cc1-c1cc(Cl)ccc1C#N (single isomer, unassigned) [Example 28, 4-({2-[4-(5-Chloro-2-cyanophenyl)-5-methoxy-2-oxopyridin-1(2H)-yl]-3-(pyridin-2-yl)propanoyl}amino)-2-fluorobenzamide] | 4.8 | 6.6
10 | COCCC(C(=O)Nc1ccc(C(N)=O)c(F)c1)n1cc(Cl)c(-c2cc(Cl)ccc2C#N)cc1=O (stereo not shown) [Example 6] | 110 | 47
11 | CNC(=O)c1ccc(NC(=O)C(Cc2coc(C)n2)n2cc(OC)c(-c3cc(Cl)ccc3C#N)cc2=O)cc1F (racemic) [Example 47, 4-({2-[4-(5-Chloro-2-cyanophenyl)-5-methoxy-2-oxopyridin-1(2H)-yl]-3-(2-methyl-1,3-oxazol-4-yl)propanoyl}amino)-2-fluoro-N-methylbenzamide] | 24 | 32
12 | COc1cn(C(Cc2nnc(C3CC3)o2)C(=O)Nc2ccc(C(N)=O)c(F)c2)c(=O)cc1-c1cc(Cl)ccc1C#N (racemic) [Example 39, 4-({2-[4-(5-Chloro-2-cyanophenyl)-5-methoxy-2-oxopyridin-1(2H)-yl]-3-(5-cyclopropyl-1,3,4-oxadiazol-2-yl)propanoyl}amino)-2-fluorobenzamide] | 38 | 70
13 | COc1cn(C(Cc2cnco2)C(=O)Nc2ccc(C(N)=O)c(F)c2)c(=O)cc1-c1cc(Cl)ccc1C#N (stereo not shown) [Example 5] | 14 | 14
14 | COCCC(C(=O)Nc1ccc(C(N)=O)c(F)c1)n1cc(OC)c(-c2cc(Cl)c(F)cc2C#N)cc1=O (racemic) [Example 25, 4-({2-[4-(5-Chloro-2-cyano-4-fluorophenyl)-5-methoxy-2-oxopyridin-1(2H)-yl]-4-methoxy-butanoyl}amino)-2-fluorobenzamide] | 160 | 310
15 | COc1cc(NC(=O)C(Cc2ccn(C)n2)n2cc(OC)c(-c3cc(Cl)ccc3C#N)cc2=O)ccc1C(N)=O (racemic) [Example 46, 4-({2-[4-(5-Chloro-2-cyanophenyl)-5-methoxy-2-oxopyridin-1(2H)-yl]-3-(1-methyl-1H-pyrazol-3-yl)propanoyl}amino)-2-methoxybenzamide] | 2.4 | 8.9
16 | CCOCCC(C(=O)Nc1ccc(C(N)=O)c(F)c1)n1cc(OC)c(-c2cc(Cl)ccc2C#N)cc1=O (racemic) [Example 18, 4-({2-[4-(5-Chloro-2-cyanophenyl)-5-methoxy-2-oxopyridin-1(2H)-yl]-4-ethoxybutanoyl}amino)-2-fluorobenzamide] | 11 | 14
17 | COc1cn(C(CC2=NOCC2)C(=O)Nc2ccc(C(N)=O)c(F)c2)c(=O)cc1-c1cc(Cl)ccc1C#N (racemic) [Example 42, 4-({2-[4-(5-Chloro-2-cyanophenyl)-5-methoxy-2-oxopyridin-1(2H)-yl]-3-(4,5-dihydro-1,2-oxazol-3-yl)propanoyl}amino)-2-fluorobenzamide] | 38 | 51
18 | COc1cn(C(Cc2cc(C)no2)C(=O)Nc2ccc(C(N)=O)c(F)c2)c(=O)cc1-c1cc(Cl)ccc1C#N (racemic) [Example 32, 4-({2-[4-(5-Chloro-2-cyanophenyl)-5-methoxy-2-oxopyridin-1(2H)-yl]-3-(3-methyl-1,2-oxazol-5-yl)propanoyl}amino)-2-fluorobenzamide] | 11 | 13
19 | CCC(C(=O)Nc1ccc(C(=O)NC)c(Cl)c1)n1cc(OC)c(-c2cc(Cl)ccc2C#N)cc1=O (racemic) [Example 27, 2-Chloro-4-({2-[4-(5-chloro-2-cyanophenyl)-5-methoxy-2-oxopyridin-1(2H)-yl]butanoyl}amino)-N-methylbenzamide] | 71 | 50
20 | COc1cn(C(Cc2ncco2)C(=O)Nc2ccc(C(N)=O)c(F)c2)c(=O)cc1-c1cc(Cl)ccc1C#N (racemic) [Example 36, 4-({2-[4-(5-Chloro-2-cyanophenyl)-5-methoxy-2-oxopyridin-1(2H)-yl]-3-(1,3-oxazol-2-yl)propanoyl}amino)-2-fluorobenzamide] | 11 | 13
21 | COCCC(C(=O)Nc1ccc(C(N)=O)c(F)c1)n1cc(OC)c(-c2cc(Cl)ccc2C#N)cc1=O (racemic) [Example 31, 4-({2-[4-(5-Chloro-2-cyanophenyl)-5-methoxy-2-oxopyridin-1(2H)-yl]-4-methoxybutanoyl}amino)-2-fluorobenzamide] | 9.7 | 
22 | COc1cn(C(Cc2cnco2)C(=O)Nc2ccc(C(N)=O)c(F)c2)c(=O)cc1-c1cc(Cl)ccc1C#N (single isomer, unassigned) [Example 45, 4-({2-[4-(5-Chloro-2-cyanophenyl)-5-methoxy-2-oxopyridin-1(2H)-yl]-3-(1,3-oxazol-5-yl)propanoyl}amino)-2-fluorobenzamide] | 4 | 6.4
23 | COCCC(C(=O)Nc1ccc(C(N)=O)c(F)c1)n1cc(OC)c(-c2cc(C)ccc2C#N)cc1=O (single isomer, unassigned) [Example 24, 4-({2-[4-(2-Cyano-5-methylphenyl)-5-methoxy-2-oxopyridin-1(2H)-yl]-4-methoxybutanoyl}amino)-2-fluorobenzamide] | 25 | 27
24 | COc1cn(C(Cc2ccn(C)n2)C(=O)Nc2ccc(C(N)=O)c(F)c2)c(=O)cc1-c1cc(Cl)ccc1C#N (racemic) [Example 38, 4-({2-[4-(5-Chloro-2-cyanophenyl)-5-methoxy-2-oxopyridin-1(2H)-yl]-3-(1-methyl-1H-pyrazol-3-yl)propanoyl}amino)-2-fluorobenzamide] | 3.6 | 6.2
25 | COCCC(C(=O)Nc1ccc(C(N)=O)c(OC)c1)n1cc(OC)c(-c2cc(Cl)ccc2C#N)cc1=O (racemic) [Example 48, 4-({2-[4-(5-Chloro-2-cyanophenyl)-5-methoxy-2-oxopyridin-1(2H)-yl]-4-methoxybutanoyl}amino)-2-methoxybenzamide] | 7.7 | 15
